Assays:
barnyardgrass = assay: Test A pre-/postemergence herbicide test; assay type: in vivo, Echinochloa crus-galli; details: for Plant response rating, Barnyardgrass: Postemergence; for Barnyardgrass plant response rating: Preemergence
Procedure, shortened: (§1)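 Sandy loam soil given preemergence directed spray; plants at 2 to 10 cm, one- to two-leaf stage, sprayed to runoff postemergence, compounds in non-phytotoxic solvent with surfactant. Injury rated visually versus untreated controls after about ten greenhouse days, 0 (no effect) to 100 (complete control); dash means not tested.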

large crabgrass = assay: Test A pre-/postemergence herbicide test; assay type: in vivo, Digitaria sanguinalis; details: for Plant response rating, Crabgrass, Large: Postemergence; for Crabgrass, Large plant response rating: Preemergence
Procedure, shortened: as §1

giant foxtail = assay: Test A pre-/postemergence herbicide test; assay type: in vivo, Setaria faberi; details: for Plant response rating, Foxtail, Giant: Postemergence; for Foxtail, Giant plant response rating: Preemergence
Procedure, shortened: as §1

redroot pigweed = assay: Test A pre-/postemergence herbicide test; assay type: in vivo, Amaranthus retroflexus; details: for Plant response rating, Pigweed: Postemergence; for Pigweed plant response rating: Preemergence
Procedure, shortened: as §1

bermudagrass = assay: Test C pre-/postemergence herbicide test; assay type: in vivo, Cynodon dactylon
Procedure, shortened: (§2)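 Preemergence: seeds planted and treated with compound in non-phytotoxic solvent with surfactant; postemergence: plants at 2 to 18 cm (1- to 4-leaf stage) sprayed likewise. Kept in greenhouse 12 to 14 days, then visually rated against controls, 0 (no effect) to 100 (complete control).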

Surinam grass = assay: Test C pre-/postemergence herbicide test; assay type: in vivo, Urochloa decumbens
Procedure, shortened: as §2

woolly cupgrass = assay: Test C pre-/postemergence herbicide test; assay type: in vivo, Eriochloa villosa
Procedure, shortened: as §2

johnsongrass = assay: Test C pre-/postemergence herbicide test; assay type: in vivo, Sorghum halepense
Procedure, shortened: as §2

morningglory = assay: Test C pre-/postemergence herbicide test; assay type: in vivo, Ipomoea coccinea; design: key to Plant response rating, Morningglory: 0 = no effect, 100 = complete control
Procedure, shortened: as §2

[1] = 500 g ai/ha, 0 to 100 scale, 0 no effect, 100 complete control
[2] = 2000 g ai/ha, 0 to 100 scale, 0 no effect, 100 complete control
[3] = 500 g ai/ha, visual rating, 0 to 100 scale (0 no effect, 100 complete control)
[4] = 31 g ai/ha, preemergence, scale 0 to 100
[5] = 125 g ai/ha, scale 0 (no effect) to 100 (complete control), visual, 12 to 14 days, preemergence
[6] = Postemergence, 125 g ai/ha, scale 0 to 100, 0 no effect, 100 complete control
[7] = postemergence, 62 g ai/ha, scale 0 to 100
[8] = postemergence, 125 g ai/ha, scale 0 to 100
[9] = 250 g ai/ha, scale 0 to 100 (0 no effect, 100 complete control), visual, 12 to 14 days, preemergence
[10] = Postemergence, 250 g ai/ha, scale 0 to 100, 0 no effect, 100 complete control
[11] = Preemergence, 500 g ai/ha, scale 0 to 100, 0 no effect, 100 complete control

CCNC(=O)c1cccc(NC(=O)c2cc(C(C)(C)C)nn2CCF)c1 [Compound 35]
Plant response rating, Barnyardgrass (barnyardgrass; [1]): 70 | Plant response rating, Barnyardgrass (barnyardgrass; [2]): 85 | Barnyardgrass plant response rating (barnyardgrass; [3]): 70 | Barnyardgrass plant response rating (barnyardgrass; [2]): 90 | Plant response rating, Crabgrass, Large (large crabgrass; [1]): 55 | Plant response rating, Crabgrass, Large (large crabgrass; [2]): 60 | Crabgrass, Large plant response rating (large crabgrass; [3]): 95 | Crabgrass, Large plant response rating (large crabgrass; [2]): 100 | Plant response rating, Foxtail, Giant (giant foxtail; [1]): 50 | Plant response rating, Foxtail, Giant (giant foxtail; [2]): 70 | Foxtail, Giant plant response rating (giant foxtail; [3]): 80 | Foxtail, Giant plant response rating (giant foxtail; [2]): 100 | Plant response rating, Pigweed (redroot pigweed; [1]): 85 | Plant response rating, Pigweed (redroot pigweed; [2]): 95 | Pigweed plant response rating (redroot pigweed; [3]): 100 | Pigweed plant response rating (redroot pigweed; [2]): 100 | Plant response rating, Bermudagrass (bermudagrass; 16 g ai/ha, scale 0 to 100, 0 no effect, 100 complete control, last section of Table C (species set of preemergence test)): 0 | Plant response rating, Bermudagrass (bermudagrass; [4]): 30 | Plant response rating (0 = no effect, 100 = complete control), Bermudagrass (bermudagrass; 62 g ai/ha, preemergence): 90 | Plant response rating, Bermudagrass (bermudagrass; [5]): 100 | Plant response rating, Bermudagrass (bermudagrass; [6]): 20 | Plant response rating, Bermudagrass (bermudagrass; postemergence, 16 g ai/ha, scale 0 to 100): 0 | Plant response rating, Bermudagrass (bermudagrass; [7]): 0 | Plant response rating, Surinam Grass (Surinam grass; [4]): 0 | Plant response rating (0 = no effect, 100 = complete control), Surinam Grass (Surinam grass; 62 g ai/ha, preemergence): 10 | Plant response rating, Surinam Grass (Surinam grass; [5]): 20 | Plant response rating, Surinam Grass (Surinam grass; [8]): 60 | Plant response rating, Surinam Grass (Surinam grass; [7]): 40 | Plant response rating, Cupgrass, Woolly (woolly cupgrass; [4]): 10 | Plant response rating (0 = no effect, 100 = complete control), Cupgrass, Woolly (woolly cupgrass; 62 g ai/ha, preemergence): 10 | Plant response rating, Cupgrass, Woolly (woolly cupgrass; [5]): 20 | Plant response rating, Cupgrass, Woolly (woolly cupgrass; [6]): 60 | Plant response rating, Cupgrass, Woolly (woolly cupgrass; [7]): 40 | Plant response rating, Johnsongrass (johnsongrass; [4]): 10 | Plant response rating (0 = no effect, 100 = complete control), Johnsongrass (johnsongrass; 62 g ai/ha, preemergence): 50 | Plant response rating, Johnsongrass (johnsongrass; [5]): 70 | Plant response rating, Johnsongrass (johnsongrass; [6]): 70 | Plant response rating, Johnsongrass (johnsongrass; [7]): 70 | Plant response rating, Morningglory (morningglory; [4]): 0 | Plant response rating (0 = no effect, 100 = complete control), Morningglory (morningglory; 62 g ai/ha, preemergence): 100 | Plant response rating, Morningglory (morningglory; [8]): 40 | Plant response rating, Morningglory (morningglory; [7]): 20

CCn1nc(C(C)(C)C)cc1C(=O)Nc1cccc(C(=O)NC2CC2)c1 [Compound 44]
Plant response rating, Barnyardgrass (barnyardgrass; [1]): 90 | Plant response rating, Barnyardgrass (barnyardgrass; [2]): 100 | Barnyardgrass plant response rating (barnyardgrass; [3]): 75 | Barnyardgrass plant response rating (barnyardgrass; [2]): 90 | Plant response rating, Crabgrass, Large (large crabgrass; [1]): 55 | Plant response rating, Crabgrass, Large (large crabgrass; [2]): 80 | Crabgrass, Large plant response rating (large crabgrass; [3]): 45 | Crabgrass, Large plant response rating (large crabgrass; [2]): 90 | Plant response rating, Foxtail, Giant (giant foxtail; [1]): 50 | Plant response rating, Foxtail, Giant (giant foxtail; [2]): 90 | Foxtail, Giant plant response rating (giant foxtail; [3]): 65 | Foxtail, Giant plant response rating (giant foxtail; [2]): 100 | Plant response rating, Pigweed (redroot pigweed; [1]): 100 | Plant response rating, Pigweed (redroot pigweed; [2]): 100 | Pigweed plant response rating (redroot pigweed; [3]): 100 | Pigweed plant response rating (redroot pigweed; [2]): 100 | Plant response rating (0 = no effect, 100 = complete control), Bermudagrass (bermudagrass; 62 g ai/ha, preemergence): 0 | Plant response rating, Bermudagrass (bermudagrass; [9]): 20 | Plant response rating, Bermudagrass (bermudagrass; [6]): 90 | Plant response rating (0 = no effect, 100 = complete control), Surinam Grass (Surinam grass; 62 g ai/ha, preemergence): 10 | Plant response rating, Surinam Grass (Surinam grass; [5]): 10 | Plant response rating, Surinam Grass (Surinam grass; [9]): 10 | Plant response rating, Surinam Grass (Surinam grass; [10]): 40 | Plant response rating, Surinam Grass (Surinam grass; [7]): 40 | Plant response rating (0 = no effect, 100 = complete control), Cupgrass, Woolly (woolly cupgrass; 62 g ai/ha, preemergence): 0 | Plant response rating, Cupgrass, Woolly (woolly cupgrass; [5]): 10 | Plant response rating, Cupgrass, Woolly (woolly cupgrass; [9]): 10 | Plant response rating, Cupgrass, Woolly (woolly cupgrass; [6]): 60 | Plant response rating, Cupgrass, Woolly (woolly cupgrass; [10]): 60 | Plant response rating, Cupgrass, Woolly (woolly cupgrass; [7]): 50 | Plant response rating (0 = no effect, 100 = complete control), Johnsongrass (johnsongrass; 62 g ai/ha, preemergence): 30 | Plant response rating, Johnsongrass (johnsongrass; [5]): 30 | Plant response rating, Johnsongrass (johnsongrass; [9]): 50 | Plant response rating, Johnsongrass (johnsongrass; [6]): 30 | Plant response rating, Johnsongrass (johnsongrass; [10]): 40 | Plant response rating, Johnsongrass (johnsongrass; [7]): 30 | Plant response rating (0 = no effect, 100 = complete control), Morningglory (morningglory; 62 g ai/ha, preemergence): 0 | Plant response rating, Morningglory (morningglory; [5]): 0 | Plant response rating, Morningglory (morningglory; [9]): 0 | Plant response rating, Morningglory (morningglory; [10]): 80 | Plant response rating, Morningglory (morningglory; [7]): 50

CCn1nc(C(C)(C)C)cc1C(=O)Nc1cccc(C(=O)NCC(C)C)c1 [Compound 61]
Plant response rating, Barnyardgrass (barnyardgrass; [1]): 35 | Plant response rating, Barnyardgrass (barnyardgrass; [2]): 90 | Barnyardgrass plant response rating (barnyardgrass; [3]): 40 | Barnyardgrass plant response rating (barnyardgrass; [2]): 75 | Plant response rating, Crabgrass, Large (large crabgrass; [1]): 30 | Plant response rating, Crabgrass, Large (large crabgrass; [2]): 45 | Crabgrass, Large plant response rating (large crabgrass; [3]): 75 | Crabgrass, Large plant response rating (large crabgrass; [2]): 90 | Plant response rating, Foxtail, Giant (giant foxtail; [1]): 20 | Plant response rating, Foxtail, Giant (giant foxtail; [2]): 85 | Foxtail, Giant plant response rating (giant foxtail; [3]): 20 | Foxtail, Giant plant response rating (giant foxtail; [2]): 75 | Plant response rating, Pigweed (redroot pigweed; [1]): 85 | Plant response rating, Pigweed (redroot pigweed; [2]): 95 | Pigweed plant response rating (redroot pigweed; [3]): 95 | Pigweed plant response rating (redroot pigweed; [2]): 65 | Plant response rating (0 = no effect, 100 = complete control), Bermudagrass (bermudagrass; 62 g ai/ha, preemergence): 10 | Plant response rating, Bermudagrass (bermudagrass; [5]): 70 | Plant response rating, Bermudagrass (bermudagrass; [9]): 80 | Bermudagrass plant response rating (bermudagrass; [11]): 95 | Plant response rating (0 = no effect, 100 = complete control), Surinam Grass (Surinam grass; 62 g ai/ha, preemergence): 0 | Plant response rating, Surinam Grass (Surinam grass; [5]): 0 | Plant response rating, Surinam Grass (Surinam grass; [9]): 5 | Surinam Grass plant response rating (Surinam grass; [11]): 5 | Plant response rating (0 = no effect, 100 = complete control), Cupgrass, Woolly (woolly cupgrass; 62 g ai/ha, preemergence): 0 | Plant response rating, Cupgrass, Woolly (woolly cupgrass; [5]): 0 | Plant response rating, Cupgrass, Woolly (woolly cupgrass; [9]): 0 | Cupgrass, Woolly plant response rating (woolly cupgrass; [11]): 10 | Plant response rating (0 = no effect, 100 = complete control), Johnsongrass (johnsongrass; 62 g ai/ha, preemergence): 10 | Plant response rating, Johnsongrass (johnsongrass; [5]): 30 | Plant response rating, Johnsongrass (johnsongrass; [9]): 50 | Johnsongrass plant response rating (johnsongrass; [11]): 60 | Plant response rating (0 = no effect, 100 = complete control), Morningglory (morningglory; 62 g ai/ha, preemergence): 0 | Plant response rating, Morningglory (morningglory; [5]): 0 | Plant response rating, Morningglory (morningglory; [9]): 5 | Morningglory plant response rating (morningglory; [11]): 100
